According to patent US11918590B2 (Intas Pharmaceuticals Ltd., priority 2021, dated 2024):
In brackets after ≈: the same amount, converted by molar mass. Read-outs that look alike come from different tables or passages of the source.

Experiments:
[1] = Solubility study of clozapine at various pH and solvent; format: physicochemical
[2] = cited from earlier work
[3] = pH 4.0 to 4.5 of Acetate buffer

Compound | Solubility ([1]; 0.1N Hydrochloric acid) [µg/mL] | Solubility [1, 3] [µg/mL] | Solubility ([1]; phosphate buffer, pH 6.8, aqueous buffer, thermodynamic from solid, pH 6.8 of Phosphate buffer, read-out: Solubility) [µg/mL] | Solubility ([1]; purified water, water, thermodynamic from solid, Purified Water, read-out: Solubility) [µg/mL] | solubility in water [2] | Solubility ([1]; Purified Water) [µg/mL] | Solubility ([1]; pH 6.8 of Phosphate buffer) [µg/mL]
CN1CCN(C2=Nc3cc(Cl)ccc3Nc3ccccc32)CC1 [Un-micronized, Clozapine] | 418 (≈ 1280 µM) | 730 (≈ 2230 µM) | 100 (≈ 306 µM) | 40 (≈ 122 µM) |  |  | 
CN1CCN(C2=Nc3cc(Cl)ccc3Nc3ccccc32)CC1 [Clozapine, 8-chloro-11-(4-methyl-1-piperazinyl)-5H-dibenzo [b,e][1,4] diazepine] |  |  |  |  | very slightly soluble in water |  | 
CN1CCN(C2=Nc3cc(Cl)ccc3Nc3ccccc32)CC1 [Micronized, Clozapine] | 28727 (≈ 87900 µM) | 4773 (≈ 14600 µM) |  |  |  | 31 (≈ 94.9 µM) | 121 (≈ 370 µM)
